We go through 9 compounds from patent US6281354A, “Analogs of duocarmycin and cc-1065” (The Scripps Research Institute, priority 1999, dated 2001).

The subject of data set [1] is w794 DNA. As to the kind of experiment: Rate of DNA alkylation at the single w794 high affinity site: pH and buffer dependence. It is filed as biochemical, SV40. The method, then: Rate of DNA Alkylation: pH Dependence. […] Because this was conducted using w794 DNA additionally containing >7000 base-pairs and multiple binding sites within the unlabeled portion of the DNA, the comparisons were conducted at concentrations that provide saturated binding and restrict the kinetic analysis to the pseudo-first order rate constant for alkylation. […] The relative lack of dependence on the acid concentration (pH) especially in the most relevant pH range of 7-8 in conjunction with the observations made in the accompanying paper has led us to propose an alternative source of reaction catalysis.
Relative Rates of DNA Alkylation for (+)-1 at pH 6-8. Eppendorf tubes containing 5' end-labeled w794 DNA (9 μL) in phosphate buffer (10 mM) at pH 6.0, 6.6, 7.1, 7.6, and 8.1 were prepared. The solutions at each pH were treated with (+)-duocarmycin SA (1μL, 10^-6 M in DMSO), mixed and incubated at 25° C. for 0.5, 1.0, 1.5, 2.0 and 3.0 h. […] The reactions were stopped at each time interval by EtOH precipitation of the DNA. The alkylated DNA was resuspended in TE buffer (10 μL, pH 7.5) and heated at 100° C. for 30 min follwed by PAGE and autoradiography as detailed above.
Since these observations sharply contrast the proposed important role of acid catalysis for activation of the agents toward DNA alkylation which has served as the basis for one prominent proposal for the origin of the DNA alkylation selectivity, we have examined in detail the pH dependence of the rate of DNA alkylation for duocarmycin SA (1) and CCBI-TMI over a physiologically relevant range. […] Between pH 6-7, the slope of the plot of pH versus log κobs was 0.2-0.3, far lower than that of 1.0 required of a first-order dependence on acid concentration.

For data set [2], the system named is w794 DNA. The settings on record: pH 7.5, earlier studies; cited from earlier work.
For data set [3], the system named is duplex DNA (w794, w836, c988, c820, c1346). It is filed as biochemical, SV40.
Data set [4] concerns w794 DNA. Briefly: DNA alkylation (thermal strand cleavage, PAGE) within w794 DNA. It is filed as biochemical, SV40.
Data set [5] deals with w836 DNA. As to the kind of experiment: DNA alkylation sites and relative rates within the six-base A sequence (5'-AAAAAA) of w836 DNA. It is filed as biochemical, SV40. The settings on record: for AT-rich binding site covered in w836 DNA / alkylated adenines within six-base A-rich sequence of w836 DNA: 5'-AAAAAA.
Data set [6] can be described thus: Chemical/aqueous solvolysis reactivity followed by UV. Type of data set: physicochemical. The source says:
The solvolysis reactivities of N--BOC-CNA (78) and CNA (79) were followed spectrophotometrically by UV at both pH 3 (50% CH3 OH-buffer, buffer=4:1:20 v/v/v 0.1 M citric acid, 0.2 M Na2 HPO4, H2 O) and pH 7 (50% CH3 OH--H2 O). […] Particularly informative are comparisons of the benzo series of agents that differ only in the C-ring size (i.e., 76-79). Solvolysis reactivity smoothly increases through the series CBI<CBQ<CNA with both the N--BOC derivatives and the free NH derivatives.
Aqueous Solvolysis of N--BOC-CNA (78) and CNA (79). Samples of 78 (150 μg) and 79 (150 [g) were dissolved in CH3 OH (1.5 mL) and the resulting solutions were mixed with aqueous buffer (pH 3, 1.5 mL, 4:1:20 (v:v:v) 0.1 M citric acid, 0.2 M Na2 HPO4, and deionized H2 O respectively). Similarly, a solution of 78 (150 μg) in CH3 OH (1.5 mL) was mixed with deionized H2 O (pH 7, 1.5 mL). The UV spectra of the solutions were measured immediately after mixing with the appropriate aqueous solution. The blank and the solvolysis reaction solutions were stoppered, protected from light, and allowed to stand at 25° C. The total reaction times reflect those required to observe no further change in absorbance. For the solvolysis of 78 at pH 3, the UV spectrum was taken every 30 s for 10 min and then every 3 min for the next 40 min. The decrease of the absorbance at 319 nm was monitored. […] For the solvolysis of 78 at pH 7, the UV spectrum was monitored every 5 min for 19 h. […] For the solvolysis of 79 at pH 3, the UV spectrum was monitored every 2 min for the first 110 min and then every 10 min for the next 4 h. The decrease in the absorbance at 345 nm was recorded.

Data set [7] has as its system DNA. The settings on record: cited from earlier work.
The test system of data set [8] is w794 DNA. Briefly: Relative rates of DNA alkylation for (+)-1, 53 and 54 at the w794 5'-AATTA site. Particulars: for concentration dependence of the rate of DNA alkylation: 10^-4 -10^-6 M. Type of data set: biochemical, SV40. The method, then:
Modifications in the Trimethoxyindole Subunit: Role of the Methoxy Substituents. DNA alkylation by the natural enantiomers of 53-56 were compared with that of 1 in w794 DNA.
Relative Rates of DNA Alkylation for (+)-1, 53, and 54. Following the procedure detailed above, Eppendorf tubes containing 5' end-labeled w794 DNA (9 μL) in TE buffer (pH 7.5) were treated with (+)-duocarmnycin SA, 53, or 54 (1 μL, 10^-5 M in DMSO). […] The solutions were mixed and incubated at 25° C. for 1, 3, 6, 12, 24, 48, and 72 h, respectively. Subsequent isolation of the alkylated DNA by EtOH precipitation, resuspension in TE buffer (10 μL, pH 7.5), thermolysis (30 min, 100° C.), concurrent PAGE, and autoradiography were conducted as detailed above. The relative rate for the alkylation at the 5'-AATTA site was derived from the slopes of the plots of percent integrated optical density (IOD) of the high affinity alkylation site cleavage bands versus time.

A short description of data set [9]: Calculated rate constant for acid-catalyzed solvolysis. It is filed as physicochemical. Particulars: pH 7.6.
Where [10] appears, read: natural enantiomers, 25° C., 24 h.

Where two headings read alike, the source gives them in different places.

As to `COc1cc2cc(C(=O)N3C[C@H]4C[C@@]45C3=CC(=O)c3ccc(C#N)cc35)[nH]c2c(OC)c1OC` [CCBI-TMI], the “change in rate of DNA alkylation over 2 pH units” value in data set [1] (10^-6 M, 25° C., 10 mM phosphate buffer, pH 6.0-8.1) is given as under 3 ×. The “effect of EDTA on the rate of DNA alkylation” value in data set [1] (Tris or phosphate buffer) is recorded as “had or no effect”. In addition, the “slope of plot of pH versus log κobs” value in data set [1] (pH 6-7) is reported as 0.2-0.3. In data set [1] (pH 7-8), the “pH dependence of the rate of DNA alkylation” value is given as “the rate dependence on pH essentially disappeared”. Also, in data set [1] (throughout the pH range), the “faster alkylation of w794 high affinity site than (+)-1” value was 1.9-2.5 ×. In addition, in [2], the “relative rate of DNA alkylation at w794 high affinity site” value was 2.5 ×.
As to `COC(=O)c1cc2c([nH]1)C(=O)C=C1N(C(=O)c3cc4c5c(ccc4[nH]3)N(C(=O)c3cc4c6c(ccc4[nH]3)N(C(N)=O)CC6)CC5)CC3CC123` (single isomer, unassigned; (+)) [(+)-DSA-CDPI2], the “AT-rich adenine N3 alkylation selectivity (size of site)” value in data set [3] was found to be 5 base-pair. Moreover, the “alkylation of individual three-base sequences” value in data set [3] (5'-TTA or 5'-ATA) was “unusually effective alkylation of 5'-TTA”. Besides, in data set [3] (consensus alkylation sequence), the “sequence preference at the alkylation site” value is listed as 5'-AAA>5'-TTA>5'-TAA≥5'-ATA. In addition, in data set [4], the “alkylation of the minor w794 site (5'-CAAAG)” value is given as “failed to alkylate” and the “high affinity alkylation site in w794 DNA” value is 5'-AATTA. For the same compound, in data set [5], the “AT-rich binding site covered in w836 DNA” value is reported as 5 base-pair and the “alkylated adenines within six-base A-rich sequence of w836 DNA” value was “only the 3' adenines”. Moreover, in data set [5] (5×10^-6 M agent (so in the source), 25° C., w836 5'-AAAAAA), the “time after which extensive DNA alkylation is exhibited” value lay in the range of 1 to 5 min.
As for `COC(=O)C1(C)NC2=C(C1=O)[C@@]13C[C@@H]1CN(C(=O)c1cc4cc(OC)c(OC)c(OC)c4[nH]1)C3=CC2=O` (stereo partly drawn) [duocarmycin A], the “solvolysis reactivity/stability in words or rank order” value in data set [6] is “remarkable stability of 1-3 even at pH 5”. Further, the “adenine N3 adduct formation (addition to least substituted cyclopropane carbon)” value in [7] is recorded as 86-92%.
For `COC(=O)c1cc2c([nH]1)C(=O)C=C1N(C(=O)c3cc4c5c(ccc4[nH]3)N(C(=O)c3cc4c6c(ccc4[nH]3)N(C(N)=O)CC6)CC5)CC3CC123` (single isomer, unassigned) [ent-(-)-DSA-CDPI2], the “AT-rich adenine N3 alkylation selectivity (size of site)” value in [3] stood at 5 base-pair. The “high affinity alkylation site in w794 DNA” value in data set [4] and in data set [4] (listed as (-)-DSA-CDPI2) was 5'-AATTT throughout. In addition, in data set [5], the “AT-rich binding site covered in w836 DNA” value was 5 base-pair. Moreover, in [5], the “alkylated adenines within six-base A-rich sequence of w836 DNA” value is recorded as 5' terminal adenines. For the same compound, in [5] (5×10^6 M agent (so in the source), 25° C., w836 5'-AAAAAA), the “time required to approach the same level of DNA alkylation as (+)-DSA-CDPI2” value is recorded as 6 h.
In the case of `COC(=O)c1cc2c([nH]1)C(=O)C=C1N(C(=O)c3cc4ccccc4[nH]3)CC3CC123` (single isomer, unassigned) [compound 53, Methyl 2-[(Indol-2-yl)carbonyl]-1,2,8,8a-tetrahydrocyclopropa[c]pyrrolo[3,2-e]indol-4-one-6-carboxylate], the “less effective at DNA alkylation than duocarmycin SA” value in [4] ((+) enantiomer) is reported as 6-10 ×. For the same compound, in data set [4] (setting [10]), the “less efficient DNA alkylation than 1” value was 20 ×. The “concentration dependence of the rate of DNA alkylation” value in data set [8] was “independent of agent concentration”.
Regarding `COc1c(O)c2c(c3cc(C(=O)N4CCc5c4c(O)c(OC)c4[nH]c(C(=O)N6C[C@H]7C[C@@]78C6=CC(=O)c6[nH]cc(C)c68)cc54)[nH]c13)CCN2C(N)=O` [(+)-CC-1065, reference compound], in data set [3], the “AT-rich adenine N3 alkylation selectivity (size of site)” value was found to be 5 base-pair. The “high affinity alkylation site in w794 DNA” value in [4] is on record as 5'-AATTA. The “pseudo first-order rate constant for DNA alkylation, pH 7.6 (unit not given)” value in data set [1] (10^-6 M, 25° C., pH 7.6, 10 mM phosphate) was 3.36×10^-4. Moreover, in data set [6], the “solvolysis reactivity/stability in words or rank order” value is on record as “remarkable stability of 1-3 even at pH 5”. In addition, the “calculated first-order rate constant for acid-catalyzed solvolysis, pH 7.6” value in [9] is recorded as 2.5×10^-11 s^-1. Also, the “adenine N3 adduct formation (addition to least substituted cyclopropane carbon)” value in [7] is over 85%.
For `COc1ccc2c(c1)C13CC1CN(C(=O)c1cc4cc(OC)c(OC)c(OC)c4[nH]1)C3=CC2=O` (stereo not drawn) [MCBI-TMI], the “relative rate of DNA alkylation at w794 high affinity site” value in data set [2] is recorded as 1.9 ×.
As for `COC(=O)c1cc2c([nH]1)C(=O)C=C1N(C(=O)c3cc4cc(OC)ccc4[nH]3)CC3CC123` (single isomer, unassigned) [compound 54, Methyl 2-[(5-Methoxyindol-2-yl)carbonyl]-1,2,8,8a-tetrahydrocyclopropa[c]pyrrolo[3,2-e]indol-4-one-6-carboxylate], in [4] (setting [10]), the “DNA alkylation compared with duocarmycin SA (1), in words” value is given as “essentially indistinguishable from 1”. Further, the “concentration dependence of the rate of DNA alkylation” value in data set [8] is recorded as “independent of agent concentration”. In addition, the “relative rate of DNA alkylation κrel versus 53” value in data set [8] (10^-5 M, 25° C., 1-72 h, 5'-d(AATTA)) is 18-33.
As to `COc1cc2cc(C(=O)N3CC4CC45C3=CC(=O)c3ccccc35)[nH]c2c(OC)c1OC` (stereo not drawn) [CBI-TMI], in [2], the “relative rate of DNA alkylation at w794 high affinity site” value is 1.0 ×.
